Experimental data taken from patent US6348488B1, “Remedies for motor dysfunction and GAPDH expression inhibitors” (Ono Pharmaceutical Co., Ltd., priority 1998, dated 2002).

Columns and labels:
spinal cord impact model = assay: Motor dysfunction inhibitory action in spinal cord impact model (treadmill maximum walking distance); type: in vivo, rat
Protocol: A male Wistar rat (about 250 g) was placed in a supine position under anesthesia with sodium pentobarbital (40 mg/kg, i.p.). After partial laminectomy to remove the fifth lumber spine, a silicon rubber (height: 1 mm, length: 4 mm, and width: 1.25 mm) was inserted in the fourth and sixth lumber spines.
After the operation, the maximum walking distance was measured using a treadmill on Day 1, 2, 3, 5, 7 and 14.
That is, the treadmill was run at a speed starting from 10 m/min, with an increment at a rate of 5 m/min every 3 minutes thereafter until the time when the animal dropped from the walking belt and could not walk any further. The walking distance was calculated from the time when the animal could not walk any further.

[1] = test system: spinal cord injury crush lesion model; assay: Motor dysfunction in spinal cord injury (crush lesion model, modified Tarlov scale); type: in vivo, rat; conditions: 10 mg/kg, versus vehicle control group
Protocol: A male Wistar rat (about 250 to 300 g) was subject to dorsal median incision and laminectomy to remove thoracic spine (T11) under anesthesia with sodium pentobarbital and then the dura mater was exposed. A metal pole (diameter: 3 mm, length: 40 mm, weight: 3.8 g) was placed on the dura mater and a load of 10 g was dropped from a height of 10 cm through a cylinder to prepare a crush lesion model. Thereafter, the muscle layer and skin were sutured. The behavioral deficit was evaluated using modifications of Tarlov scale. That is, the evaluation was made based on mean scores of both hind legs according to the following scores. Neurologic scores: 0 Complete paralysis of hind legs 1 Slight movements of hind legs were observed. 2 Movements of hind legs were clear but the body weight could not be supported so that autonomic movement was impossible. 3 The animal crept and could not support the body weight. 4 The animal could support the body weight when standing or walking. However, clearly disabled. 5 Posture and walking ability are close to those of normal animals.

[2] = test system: cerebellar granule cells (CGC); assay: cells; type: cell-based; conditions: for Age-induced apoptosis of CGC: added at 7 DIV, agent 0.03 μM, THA 10 μM
Protocol: A) Preparation of primary culture cerebellar granule cells (CGC)
According to the method by Ishitani et al., CGC was prepared as follows (Ishitani et al., J. Neurochem., 66:928-35, 1996).
Cerebellum was excised from an 8-day old Sprague-Dawley rat and cut to 0.4 mm square cubes using Mcllawin tissue chopper. Further, the cubes were digested at 37° C. for 15 minutes in a 0.025% trypsin-containing Krebs phosphate buffer (KPB).
After the reaction was stopped with KPB containing 0.008% soybean trypsin inhibitor and 0.0016% deoxyribonuclease I, the digested cubes were triturated in KPB containing 0.01% deoxyribonuclease I and 0.05% soybean trypsin inhibitor using a convergent Pasteur pipette to obtain dispersed CGC.
The cells were suspended in a basal modified Eagle's medium (BME) containing 10% fetal calf serum (FCS), 2 mM glutamine, 50 μg/ml gentamycin and 25 mM potassium chloride (KCl), and seeded on a plastic dish (35 mm) coated with poly-L-lysine (molecular weight: 3-7×10^4, 100 μg/ml) to a cell density of 2.1×10^5 live cells/cm^2.
Under 5% carbon dioxide (CO2), culture was started at 37° C. and after 18 to 24 hours cytosine arabinofuranoside (10 μM) for preventing the growth of non-neuronal cells was added and culture was continued. At 7 DIV (days in vitro), various chemicals were added and thereafter, culture was continued in the same medium.
B) Measurement of viability by live double staining method with FDA-PI
CGC after desired culture days was washed twice with 2 ml of Locke's solution (154 mM NaCl, 5.6 mM KCl, 2.3 mM CaCl2, 1.2 mM MgSO4, 5 mM HEPES, 5.6 mM glucose, 3.6 mM NaHCO3, pH 7.4) and then stained with 0.0008% fluorescein diacetate (FDA) and 0.0002% propidium iodide (PI) for 3 to 5 minutes.
Fluorescent observation was performed using epi-illuminated fluorescent microscope (Olympus, IMT2-RFL) equipped with a dichroic mirror for B excitement (IMT2-DMB), an auxiliary excitation filter (EY455) and an auxiliary filter (O530).
FDA was decomposed by an esterase in the living cells to emit fluorescence (fluorescein) from green to yellow fluorescence, on the other hand PI permeates through dead cell membranes and binds with DNA to emit from red to brown fluorescence, so that the both fluorescences can be observed simultaneously using the above-described fluorescence microscopy.
Viability was calculated according to the following formula.
Viability=[FDA stained cell number/(FDA stained cell number+PI stained cell number)]×100

GAPDH mRNA = GAPDH mRNA expression in CGC, Northern blotting analysis; type: cell-based, rat; conditions: addition at 7 DIV; measured at 15 DIV (CGC)
Protocol: Preparation of the primary culture cerebellar granule cells (CGC) was performed in accordance with Test Example 3 A).
Then, according to the method of Fukamauchi et al., total RNA was extracted from CGC of the desired culture day number. The total RNA (9 μg/lane) was electrophoresed on 1.2% agarose formaldehyde gel and transferred to a nylon membrane (Hybond-N, Amersham). Thereafter, it was subjected to prehybridization at 42° C. for 3 to 5 hours in a solution containing 5×Denhardt's solution (0.1% Ficol 400, 0.1% polyvinyl pyrrolidone, 0.1% BSA), 50% formamide, 50 μg/ml salmon testis DNA, and 0.5% SDS (Fukamauchi et al., J. Neurochem., 56:716-9, 1991, Sunaga et al., Neurosci. Lett., 163:27-30, 1993).
Using a Multi prime DNA labelling kit (Amersham), human GAPDH cDNA probe (Clontech, Palo Alto, Calif., U.S.A.) labeled with [α-^32P] deoxycytidine 5′-triphosphate (3,000 Ci/mm pl) was thermally denatured and thereafter added to the prehybridization solution, followed by hybridization at 42° C. for 24 hours.
The membrane was fully washed at 60° C. for 10 minutes in 0.1% SDS containing 0.1×SSC ([…], pH 7.0), exposed on a high-sensitivity X-ray film (IPSO 3000, Fuji) to prepare an autoradiogram. Quantitative analysis was performed using a CCD type image analyzer (BIOPROFIL, M&S).

GAPDH protein = GAPDH protein expression in CGC, SDS-PAGE and Western blotting analyses; type: cell-based, rat; conditions: process of age-induced cell death
Protocol: The cultured cells of the desired culture day number were washed three times with 2 ml of PBS and then stripped off by a rubber policeman and the cells were recovered by centrifugation at 188×G at 4° C. for 5 minutes. The cells were resuspended in ice-cooled 50 mM Tris-HCl buffer (pH 7.4) and the cell membranes were destroyed by sonication.
The homogenate was centrifuged at 2×10^5×G at 4° C. for 30 minutes to obtain a precipitate (insoluble fraction (pellet)), which was resuspended in the same buffer and then was subjected to quantitative determination of protein together with the supernatant (soluble “supernatant”). […]
The gel after the electrophoresis was stained with 0.1% Coomassie blue. The quantitative analysis of the amount of 38-kDa protein band was performed using a CCD type image analyzer (BIOPROFIL, N&S). […]
The PDVF membrane after the transcription was treated in 0.5% skim milk containing TBS-T (20 mM Tris, 137 mM NaCl, 0.05% Tween 20, pH 7.4) for 60 minutes to effect blocking, and then was allowed to react at room temperature for 60 minutes in TBS-T containing primary antibody (anti-rabbit GAPDH monoclonal antibody diluted to 1:15000). […] After washing the PVDF membrane, quantitative determination of GAPDH protein was performed on a high-sensitivity X-ray film using a detector for chemiluminescence (Renaissance TM, NEN).

[3] = Acute toxicity, rat, intravenous administration; type: in vivo
[4] = test system: 30 types or more of surface receptors inclusive of overactivated NMDA receptors; assay: Influence on surface receptors in age-induced apoptosis of CGC

Row | SMILES | Maximum Walking Distance (spinal cord impact model; 1 mg/Kg, Day 2 after administration) [m] | Maximum Walking Distance (spinal cord impact model; 1 mg/Kg, Day 4 after administration) [m] | Maximum Walking Distance (spinal cord impact model; 1 mg/Kg, Day 11 after administration) [m] | Maximum Walking Distance (spinal cord impact model; 10 mg/Kg orally, Day 2 after administration) [m] | Maximum Walking Distance (spinal cord impact model; 10 mg/Kg orally, Day 4 after administration) [m] | Maximum Walking Distance (spinal cord impact model; 10 mg/Kg orally, Day 11 after administration (day 14 after operation)) [m] | Maximum Walking Distance (spinal cord impact model; 10 mg/Kg orally, Day 11 after administration (day 14 after operation), listed as N-[3-[N-(4-chlorophenylmethyl)carbamoyl]propanoyl]-L-prolinal) [m] | Influence on the autonomic movement and sensitivity to pain (spinal cord impact model; rat, spinal cord impact model) | Degree of recovery of motor dysfunction (neurologic score) ([1]; day 9 up to day 21 of the operation) | Change in body weight after the operation [1] | viability at 0.03 µM ([2]; Rattus norvegicus, 0.03 μM added at 7 DIV, at 17 DIV) [%] | Age-induced apoptosis of CGC [2] | Concentration exhibiting a protective action to neurons ([2]; at 17 DIV) | Increase in GAPDH mRNA (GAPDH mRNA) | Increase in the 38-kDa protein (GAPDH) in cell membrane fraction (GAPDH protein) | Acute toxicity (LD50) [3] [mg/kg body weight] | Influence on surface receptors [4] | Inhibition of the cell death ([2]; 1 μM) | Inhibition of the cell death ([2]; 10 μM)
1 | O=C[C@@H]1CCCN1C(=O)CCC(=O)NCc1ccc(Cl)cc1 [Agent of invention, N-[3-[N-(4-chlorophenylmethyl)carbamoyl]propanoyl]-L-prolinal] | 237 ± 49 | 414 ± 58 | 347 ± 77 | 329 ± 15 | 455 ± 34 | 408 ± 30 | 408±30 | no influence | tended to be superior as compared with the vehicle control group | tended to be superior to the vehicle control group | 92 ± 4.4 | inhibited | several | completely inhibited | inhibited the increase | 200 | no influence |  | 
2 | Nc1c2c(nc3ccccc13)CCCC2 [THA, 9-amino-1,2,3,4-tetrahydroacridine, reference compound] |  |  |  |  |  |  |  |  |  |  |  | inhibited |  |  |  |  |  | about 30% | almost completely
